# Data reported in patent US20080293725A1, “Prognostic Molecular Markers” (priority 2004, published 2008).
# Several values for one entry are separate records, joined by “and”; a condition that tells them apart may be missing. Equal values may be shown once.
# Assays:
# [1] = test system: HCC1937 breast cancer cell line; conditions: wild-type BRCA1 reconstituted vs BRCA1-negative HCC1937; cited from earlier work
# sarcoma patients = test: Clinical outcome of sarcoma patients treated with ET-743, matched with BRCA1, ERCC1 and XPD mRNA expression in tumor samples; type: in vivo, human; parameters: PFS6 rate (progression free survival higher than 6 months) / patients achieving progression free survival >=6 months (PFS6) / overall progression free survival at 6 months (Kaplan-Meier) / median survival at 12 months: concentration or dose not given beside the values
# Method: In this study, 61 paraffin embedded tumoral samples from sarcoma patients before the treatment with any chemotherapy agent have been evaluated.
# The majority of patients were treated before with one or several chemotherapy agents and later they followed a treatment with ET-743. The dosage of intravenous infusion ET-743 given to the different patients was within the range of 1.650-1.0 mg/m2; the schedules were 24 hours or 3 hour IV infusion with a three week interval between cycles; and the number of cycles ranged from 1 up to 25 cycles in some patients.
# The clinical data from the patients was collected in the clinical data collection form and matched with the molecular data after completion of the mRNA expression levels determination (Table 1).
# We examined XPD, ERCC1 and/or BRCA1 gene expression in formalin-fixed, paraffin-embedded tumor specimens from the 61 patients as previously described (Specht K. et al. Am J Pathol, 2001, 158, 419-429 and Krafft A E. et al. Mol Diagn. 1997, 3, 217-230). After standard tissue sample deparaffinisation using xylene and alcohols, samples were lysed in a tris-chloride, EDTA, sodium dodecyl sulphate (SDS) and proteinase K containing buffer. RNA was then extracted with phenol-chloroform-isoamyl alcohol followed by precipitation with isopropanol in the presence of glycogen and sodium acetate. RNA was resuspended in RNA storage solution (Ambion Inc; Austin Tex., USA) and treated with DNAse I to avoid DNA contamination. cDNA was synthesized using M-MLV retrotranscriptase enzyme. Template cDNA was added to Taqman Universal Master Mix (AB; Applied Biosystems, Foster City, Calif., USA) in a 20-μl reaction with specific primers and probe for each gene. The primer and probe sets were designed using Primer Express 2.0 Software (AB). Quantification of gene expression was performed using the ABI Prism 7900HT Sequence Detection System (AB). The primers and 5′ labeled fluorescent reporter dye (6FAM) probe were as follows: β-actin: forward 5′ TGA GCG CGG CTA CAG CTT 3′, reverse 5′ TCCTTAATGTCACGCACGATTT 3′, probe 5′ ACC ACC ACG GCC GAG CGG 3′; BRCA1: forward 5′ GGCTATCCTCTCAGAGTGACATTTTA 3′, reverse 5′ GCTTTATCAGGTTATGTTGCATGGT 3′, probe 5′ CCA CTC AGC AGA GGG 3′; ERCC1: forward 5′ GGGAATTTGGCGACGTAATTC 3′, reverse 5′ GCG GAG GCT GAG GAA CAG 3′, probe 5′CACAGGTGCTCTGGCCCAGCACATA 3′; XPD: forward 5′ GCTCCCGCAAAAACTTGTGT 3′, reverse 5′ CAT CGA CGT CCT TCC CAA A 3′, probe 5′ ACCCTGAGGTGACACCCCTGC 3′.
# Relative gene expression quantification was calculated according to the comparative Ct method using β-actin as an endogenous control and commercial RNA controls (Stratagene, La Jolla, Calif.) as calibrators. Final results, were determined as follows: 2^−(^Δ^Ct sample−^Δ^Ct calibrator), where ΔCT values of the calibrator and sample are determined by subtracting the […]. In all experiments, only triplicates with a standard deviation (SD) of the Ct value <0.20 were accepted. In addition, for each sample analyzed, a retrotranscriptase minus control was run in the same plate to assure lack of genomic DNA contamination.
# SAS v8.2 (statistical software) was used for all the statistical analysis. The statistical techniques for univariate, bivariate and multivariate variables were chosen, according with the nature of variables that will be analysed, i.e. when the dependent variable is a temporal variable with censor status the Cox regression would be applied, when correlation between variables will be computed the Pearson and/or Spearman measures would be used. P-values below 0.05 will be considered statistically significant in all tests, when appropriate 95% confidence intervals will be presented too.
# A total of 61 paraffin embedded tumor samples were evaluated. […] These samples came from sarcoma patients before being treated with a chemotherapy agent.
# [2] = BRCA1 mRNA <1.97 (low expression)
# [3] = BRCA1 mRNA >=1.97 (high expression)
# [4] = ERCC1 mRNA <5.86 (low expression)
# [5] = ERCC1 mRNA >=5.86 (high expression)
# [6] = Kaplan-Meier FIG. 2A, high BRCA1 expressers
# [7] = Kaplan-Meier FIG. 2A, high BRCA1 expression
# [8] = Kaplan-Meier FIG. 2A, low BRCA1 expression
# [9] = Kaplan-Meier FIG. 2B, high ERCC1 expression
# [10] = Kaplan-Meier FIG. 2B, low ERCC1 expression
# [11] = Kaplan-Meier FIG. 2C (XPD), high expression
# [12] = Kaplan-Meier FIG. 2C (XPD), low expression
# [13] = XPD mRNA <1.99 (low expression)
# [14] = XPD mRNA >=1.99 (high expression)
structure (smiles),measurement,setting,value
N.N.[Cl][Pt][Cl] [cisplatin],increase in resistance,[1],20 fold
"COc1cc2c(cc1O)CCN[C@]21CS[C@@H]2c3c(OC(C)=O)c(C)c4c(c3[C@H](COC1=O)N1[C@@H]2[C@H]2c3c(cc(C)c(OC)c3O)C[C@@H]([C@@H]1O)N2C)OCO4 [ET-743, ecteinascidin 743]","increase in objective response, low BRCA1 subpopulation vs full cohort",sarcoma patients; 16% to 21%,1.3 fold
same,"increase in PFS6 rate, low BRCA1 subpopulation vs full cohort",sarcoma patients; 24% to 38%,1.6 fold
same,"overall response rate (RR), PR + Minor Responses",sarcoma patients; 55 evaluable patients,16%
same,"overall response rate (RR), only Partial Responses",sarcoma patients; 55 evaluable patients,15%
same,patients achieving progression free survival >=6 months (PFS6),"sarcoma patients; 55 evaluable patients, (8 PR+1 MR+6 SD)/55",27%
same,PD (number of patients),"sarcoma patients; BRCA1 cohort, Total",30
same,PFS <6 (number of patients),"sarcoma patients; BRCA1 cohort, Total",38
same,PFS >=6 (number of patients),"sarcoma patients; BRCA1 cohort, Total",12
same,PR + MR (number of patients),"sarcoma patients; BRCA1 cohort, Total",8
same,PD (number of patients),sarcoma patients; BRCA1 mRNA <1.97,12
same,PFS <6 (number of patients),sarcoma patients; BRCA1 mRNA <1.97,16
same,PFS >=6 (number of patients),sarcoma patients; BRCA1 mRNA <1.97,9
same,PR + MR (number of patients),sarcoma patients; BRCA1 mRNA <1.97,5
same,objective response (PR+MR),sarcoma patients; [2],21%
same,patients reaching PFS6 (PFS >=6 months),sarcoma patients; [2],38% and 36%
same,PD (number of patients),sarcoma patients; BRCA1 mRNA >=1.97,18
same,PFS <6 (number of patients),sarcoma patients; BRCA1 mRNA >=1.97,22
same,PFS >=6 (number of patients),sarcoma patients; BRCA1 mRNA >=1.97,3
same,PR + MR (number of patients),sarcoma patients; BRCA1 mRNA >=1.97,3
same,objective response (PR+MR),sarcoma patients; [3],11%
same,patients reaching PFS6 (PFS >=6 months),sarcoma patients; [3],12%
same,PD (number of patients),"sarcoma patients; ERCC1 cohort, Total",22
same,PFS <6 (number of patients),"sarcoma patients; ERCC1 cohort, Total",29
same,PR + MR (number of patients),"sarcoma patients; ERCC1 cohort, Total",6
same,PD (number of patients),sarcoma patients; ERCC1 mRNA <5.86,12
same,PFS <6 (number of patients),sarcoma patients; ERCC1 mRNA <5.86,16
same,PFS >=6 (number of patients),sarcoma patients; ERCC1 mRNA <5.86,3
same,PR + MR (number of patients),sarcoma patients; ERCC1 mRNA <5.86,2
same,objective response (PR+MR),sarcoma patients; [4],11%
same,patients reaching PFS6 (PFS >=6 months),sarcoma patients; [4],16%
same,PD (number of patients),sarcoma patients; ERCC1 mRNA >=5.86,10
same,PFS <6 (number of patients),sarcoma patients; ERCC1 mRNA >=5.86,13
same,PFS >=6 (number of patients),sarcoma patients; ERCC1 mRNA >=5.86,6
same,PR + MR (number of patients),sarcoma patients; ERCC1 mRNA >=5.86,4
same,objective response (PR+MR),sarcoma patients; [5],21%
same,patients reaching PFS6 (PFS >=6 months),sarcoma patients; [5],32%
same,PFS (median),sarcoma patients; [6],1.5 months
same,median survival,sarcoma patients; [6],5.4 months
same,median survival at 12 months,sarcoma patients; [7],35.71%
same,percentage of patients with PFS6,sarcoma patients; [7],11.54%
same,PFS (median),sarcoma patients; [8],2.3 months
same,median survival,sarcoma patients; [8],11.7 months
same,median survival at 12 months,sarcoma patients; [8],42.23%
same,percentage of patients with PFS6,sarcoma patients; [8],41.67%
same,median survival,"sarcoma patients; Kaplan-Meier FIG. 2B, high ERCC1 expressers",19.4 months
same,PFS6,sarcoma patients; [9],31.58%
same,median PFS,sarcoma patients; [9],2.2 months
same,PFS6,sarcoma patients; [10],21.05%
same,median PFS,sarcoma patients; [10],1.4 months
same,median survival,sarcoma patients; [10],16.8 months
same,PFS6,sarcoma patients; [11],30%
same,median PFS,sarcoma patients; [11],2.0 months
same,median survival,sarcoma patients; [11],19.4 months
same,median survival,"sarcoma patients; Kaplan-Meier FIG. 2C (XPD), low expressers",16.8 months
same,PFS6,sarcoma patients; [12],17.65%
same,median PFS,sarcoma patients; [12],1.2 months
same,PD (number of patients),"sarcoma patients; XPD cohort, Total",22
same,PFS <6 (number of patients),"sarcoma patients; XPD cohort, Total",29
same,PFS >=6 (number of patients),"sarcoma patients; XPD cohort, Total",8
same,PR + MR (number of patients),"sarcoma patients; XPD cohort, Total",5
same,PD (number of patients),sarcoma patients; XPD mRNA <1.99,11
same,PFS <6 (number of patients),sarcoma patients; XPD mRNA <1.99,14
same,PFS >=6 (number of patients),sarcoma patients; XPD mRNA <1.99,3
same,PR + MR (number of patients),sarcoma patients; XPD mRNA <1.99,2
same,objective response (PR+MR),sarcoma patients; [13],12%
same,patients reaching PFS6 (PFS >=6 months),sarcoma patients; [13],18%
same,PD (number of patients),sarcoma patients; XPD mRNA >=1.99,11
same,PFS <6 (number of patients),sarcoma patients; XPD mRNA >=1.99,15
same,PFS >=6 (number of patients),sarcoma patients; XPD mRNA >=1.99,5
same,PR + MR (number of patients),sarcoma patients; XPD mRNA >=1.99,3
same,objective response (PR+MR),sarcoma patients; [14],15%
same,patients reaching PFS6 (PFS >=6 months),sarcoma patients; [14],25%
same,median duration of the response (PR+MR),sarcoma patients; all patients,13.6 months
same,range of duration of the response (PR+MR),sarcoma patients; all patients,44.1 to 3.8 months
same,range of survival,sarcoma patients; all patients,0.1-66.9 months
same,median survival,"sarcoma patients; all patients, 14 patients still censored",7.7 months
same,median survival (Kaplan-Meier),"sarcoma patients; all patients, FIG. 1",10.2 months
same,overall progression free survival at 6 months (Kaplan-Meier),"sarcoma patients; all patients, FIG. 1",27.65%
same,objective response (PR+MR),sarcoma patients; full cohort with BRCA1 data (8/51),16%
same,PFS6 rate (progression free survival higher than 6 months),sarcoma patients; full cohort with BRCA1 data (12/50),24%
